Test results as given in patent US20140080810A1 (Exelixis, Inc., priority 2010, published 2014).
Read-outs that look alike come from different tables or passages of the source.

Key:
Experiment in all cases: pAKT (T308) ELISA Assay
Assay type in all cases: cell-based
[1] = system: pAKT (T308) in HCT 116 cells (PI3Kα H1047R); conditions: Homo sapiens, IGF1 stimulation, read-out: Cellular pAKT (T308) IC50 PI3KαH1047R HCT 116 IGF1
Method: (§1) In another embodiment, the pAKT ELISA Assay was performed by seeding cells onto 96-well plates (Corning, 3904) in their respective growth media at the densities listed in Table 5. Cells were incubated at 37° C., 5% CO2 for 48 h (except MDA-MB-453 cells which were cultured in the absence of CO2). Compounds were serially diluted in DMSO and subsequently diluted in serum-free DMEM. Test compounds were added to cells in serum-free DMEM at a final concentration of 0.3% DMSO and incubated for 3 h. Cells were lysed with 130 μL of ice-cold RIPA lysis buffer (50 mM Tris-HCl, pH 7.5; 0.5% sodium deoxycholic acid; 1% Triton X-100; 0.1% SDS; 150 mM NaCl) with protease and phosphatase inhibitors (1 mM EDTA, 1 mM NaF, 20 mM β-glycerophosphate, 1 mM Na-orthovanadate, Complete-Mini EDTA-free, Roche, 11836170001, and Phosphatase Inhibitor Cocktail I, Sigma, P2850), directly in 96-well plates. Cells were lysed on ice for 60-120 min at 4° C. The supernatants were added directly to capture ELISA plates previously pre-coated with rabbit anti-AKT capture antibody. ELISA assays for pAKT(T308) and total AKT were performed with the pAKT(T308) ELISA kit (Cell Signaling Technology, 7144) and AKT1 ELISA kit (Cell Signaling Technology, 7142). For the pAKT(T308) ELISA, 85 μL of cell lysate was added to each well. For the total AKT1 ELISA, 15 μL of cell lysate and 85 μL of Starting Block buffer (Pierce, 37543) were added to each well. The plates were incubated overnight at 4° C. with gentle shaking, then washed 3 times with 200 μL of TBST (20 mM Tris, pH 7.4; 150 mM NaCl; 0.1% Tween 20) for 30 s each, and incubated for 1 h with 100 μL of detection antibody (mouse anti-pAKT(T308) antibody or mouse anti-AKT1 antibody). After 3 washes with TBST, the plates were incubated with a 1:1000 dilution of a horseradish peroxidase-labeled anti-mouse IgG (Cell Signaling Technology, 7076) in 100 μL of Starting Block buffer for 0.5 h. After 3 washes with TBST, 50 μL of SuperSignal ELISA Femto substrate solution (Thermo Scientific, 37075A) and 50 μL of SuperSignal ELISA enhancer solution mixture (Thermo Scientific, 37075B) were added to each well and the plates were incubated for approximately 2 min and protected from light. The wells were measured for luminescence using a Wallac plate reader at wavelength of 560 nm. After normalization of pAKT signal to total AKT1 signal, IC50 values were determined relative to the DMSO-treated control.

[2] = system: pAKT (T308) in MDA-MB-453 cells (PI3Kα H1047R); conditions: Homo sapiens, heregulin stimulation, read-out: Cellular pAKT (T308) IC50 PI3KαH1047R MDA-MB-453 hereg
Method: as §1

[3] = system: pAKT (T308) in SK-BR-3 cells (PI3Kα wt); conditions: Homo sapiens, heregulin stimulation, read-out: Cellular pAKT (T308) IC50 PI3Kαwt SK-BR-3 hereg
Method: as §1

[4] = system: pAKT (T308) in SK-OV-3 cells (PI3Kα H1047R); conditions: Homo sapiens, IGF1 stimulation, read-out: Cellular pAKT (T308) IC50 PI3KαH1047R SK-OV-3 IGF1
Method: as §1

[5] = system: pAKT (T308) in T-47D cells (PI3Kα H1047R); conditions: Homo sapiens, T47D, IGF1 stimulation
Method: as §1

[6] = read-out: Cellular pAKT (T308) IC50 PI3KαH1047R T-47D IGF1
[7] = read-out: pAKT (T308) IC50 T-47D PI3Kα H1047R IGF1

| IC50 [1] | IC50 [2] | IC50 [3] | IC50 [4] | IC50 [5, 6] | IC50 [5, 7] | Structure (SMILES) |
| --- | --- | --- | --- | --- | --- | --- |
| 462 nM | 118 nM | 2860 nM | 438 nM | 258 nM | 258 nM | CCNc1nc2ccc(-c3ccc4c(c3)CN(c3ccnc5cc(F)ccc35)CCO4)cc2[nH]1 [Compound 698] |
| 719 nM | 639 nM | 4540 nM | 1240 nM | 207 nM | 207 nM | CCNc1nc2ccc(-c3ccc4c(c3)CN(c3ncnc(NCC)c3C)CCO4)cc2[nH]1 [Compound 699] |

Further lines, the compound ahead of its results:

| Structure (SMILES) | IC50 [1] | IC50 [2] | IC50 [3] | IC50 [4] | IC50 [5, 6] | IC50 [5, 7] |
| --- | --- | --- | --- | --- | --- | --- |
| COc1ccc2c(N3CCOc4ccc(-c5cnc6nc(C)[nH]c6c5)cc4C3)nc(CN(C)C)nc2c1 [Compound 696] | 400 nM | 117 nM | 1240 nM | 956 nM | 213 nM | 213 nM |
| Cc1nc2ncc(-c3ccc4c(c3)CN(c3nc(CN(C)C)nc5c3CC(C)(C)CC5)CCO4)cc2[nH]1 [Compound 693] | 168 nM | 40 nM | 339 nM |  | 73 nM | 73 nM |
| Cc1nc2cc(-c3ccc4c(c3)CN(c3nc(CN(C)C)nc(C)c3C(C)C)CCO4)cnc2[nH]1 [Compound 694] | 130 nM | 18 nM | 115 nM |  | 102 nM | 102 nM |
